From US20250250227A1, “AMINO LIPID COMPOUND, PREPARATION METHOD THEREFOR, COMPOSITION THEREOF AND USE THEREOF” (SHENZHEN SHENXIN BIOTECHNOLOGY CO., LTD., priority 2022, published 2025) come the findings set out here.

Series [1] concerns Female BALB/c mice. Put plainly: Performance evaluation of delivery to lymph nodes of Fluc mRNA lipid nanoparticle (IVIS). In kind it is in vivo. The settings on record: Fluc mRNA LNP; for Expression intensity (lymph nodes): 75 μL IV, 6 hours after injection, IVIS. Here is the method: (§1) Animal preparation: Female BALB/c mice of 6-8 weeks old were selected and raised in an SPF grade breeding room. Animal testing was conducted in strict accordance with the guidelines of national health institutions and animal ethics requirements.
In vivo Delivery: prior to injection of the test LNP formulations, the LNP formulations were gently and repeatedly inverted to thoroughly mix the formulation samples. A corresponding amount of the formulation samples were aspirated with a 1 ml insulin syringe, and the LNP formulations were injected by tail vein injection (IV), with 3 mice per formulation. Each mouse was injected with 75 μL the luciferase mRNA (Fluc mRNA)-encapsulating lipid nanoparticle formulation prepared in Experimental Example 1.
6 hours after injection of LNP formulations, mice were injected with 200 μL D-Luciferin luciferase developing substrate (Catalog No. 122799; Manufacturer: Perkin Elmer). After the substrate was injected, the mice were anesthetized with isoflurane inhalation, and the injection time of luciferase developing substrate was recorded.
The intensity of fluorescence expression induced by the lipid nanoparticle encapsulating luciferase mRNA (Fluc mRNA) with a representative amino lipid compound is shown in Table 6, with SM-102 as a control.

For series [2], the system named is Female BALB/c mice. The experiment in a line: IFN-γ Elispot cellular immunity test, spleen lymphocytes of mice immunized with IN002.5.1 mRNA LNP. In kind it is in vivo. The settings on record: 50 μL IM, spleen on 7th day after immunization, FIG. 2-4. Here is the method: An IN002.5.1 mRNA-encapsulating lipid nanoparticle formulation was prepared according to the method as described in Experimental Example 1, with replacing the luciferase mRNA (Fluc mRNA) with IN002.5.1 mRNA, with a concentration of IN002.5.1 mRNA of 0.2 g/L, a mass ratio of IN002.5.1 mRNA to Lipid of 1:10, a particle size of 80-130 nm, and an encapsulation efficiency of 90% or higher.
The sequence of IN002.5.1 mRNA is one obtained by replacing all uracil (u) in SEQ ID NO. 1 with N1-methylpseudouridine. Of note is that the t (thymine) in the RNA sequence, SEQ ID NO. 1, in the Sequence Listing is actually u (uracil), according to the WIPO Standard ST. 26 for nucleotide or amino acid sequence listing.
as §1
Immunization of mice: Prior to injection of the test LNP formulations, the LNP formulations were gently and repeatedly inverted to thoroughly mix the formulation samples. A corresponding amount of the formulation samples were aspirated with a 1 ml insulin syringe, and the LNP formulations were injected by intramuscular injection (IM) […], with 8 mice per formulation. Each mouse was injected with 50 μL of the IN002.5.1 mRNA encapsulating lipid nanoparticle formulation.
Spleen acquisition: On the 7th day after immunization, 3 to 4 mice from each LNP immunization group were selected and euthanized, and their spleens were acquired in a super clean bench.
Isolation of lymphocytes: The spleens of mice were taken out in a super clean bench. 7 mL of mouse lymphocyte separation solution was added to a 6-well cell culture plate. Mouse spleen cells were ground with a syringe piston, and the suspension of the spleen cells was filtered through a cell screen and immediately transferred to a 15 mL centrifuge tube. […] RPMI 1640 medium was slowly added with keeping the liquid interface distinct. After centrifugation at 800 g with a horizontal rotor at room temperature for 30 minutes, a clear stratification can be visible. The lymphocyte layer was aspirated, then added with 10 mL RPMI 1640 medium, and inverted for washing. The cells were collected by centrifugation at 250 g for 10 min at room temperature, and the red blood cells were lysed. After completing lysis of red blood cells, the supernatant was poured, and the cells were resuspended in culture medium and counted.
Addition of stimulant and culture of lymphocyte: RPMI-1640 medium containing 10% fetal bovine serum was used to activate the pre-coated plate. After standing at room temperature for at least 30 min, the medium was removed, and a cell suspension at adjusted concentration was added ([…]). The medium used to resuspend the cells was used as a background negative control. 10 μL positive stimulant working solution (PMA+Ionomycin (dissolved in DPBS) was added to a positive control well; […] medium used to resuspend the cells was added to a negative control well; 10 µL/well of a peptide library diluted with RPMI 1640 was added to experimental wells. After all samples and the stimulant were added, the plate was covered, incubated in an incubator with 5% CO2 at 37° C. for 16-24 h.
Elispot detection after culture: The cells and the culture medium in the wells were dumped, and the wells were lysed with 200 μL/well of ice-cold deionized water at 4° C. for 10 min. The liquid in the wells were shaken out, and the wells were washed five times with PBS buffer. The wells were incubated with 100 μL/well of 1 μg/ml detection antibody for 2 h at room temperature; and after washing the plate 5 times with PBS, the wells were incubated with 100 μL/well of 1000-fold diluted enzyme labeled avidin (Streptavidin-HRP) for 1 h at room temperature. […]

Series [3] concerns Female BALB/c mice. The experiment in a line: Performance evaluation of in vivo delivery of Fluc mRNA lipid nanoparticle (IVIS, body and organs). The settings on record: Fluc mRNA LNP. The procedure, abridged: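 Female BALB/c mice, 6-8 weeks, received 75 μL Fluc mRNA-LNP by tail-vein injection, 3 mice per formulation. At 6 h, 200 μL D-luciferin was injected, mice were anesthetized with isoflurane, and IVIS bioluminescence was imaged in body and organs.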

The nature of series [4]: Preparation and characterisation of mRNA-encapsulating lipid nanoparticle (encapsulation efficiency, particle size). In kind it is physicochemical. The note with it: LNP encapsulating Fluc mRNA; Lipid:DSPC:CHO-HP:M-DMG-2000 48:10:40.5:1.5. The procedure, abridged: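 Fluc mRNA in sodium acetate buffer mixed with ethanolic amino lipid:DSPC:CHO-HP:M-DMG-2000 (48:10:40.5:1.5 molar) by microfluidics, mRNA:lipid mass ratio 1:10, then dialysed 2 h against Tris-8% sucrose and 0.22 μm filtered. Final mRNA 0.2 g/L; particle size and encapsulation efficiency measured.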

As for `CCCCCCC(CCCCCC)OC(=O)CCCCCCCCC(CCCCCCCCC(=O)OC(CCCCCC)CCCCCC)OC(=O)N(CCCN(C)C)CC(=O)OCC` [Compound 268], the “Expression intensity (lymph nodes)” value in the series on Female BALB/c mice [1] is 1.78E+06. Moreover, the “Delivery effect on lymph nodes compared to SM102” value in the series with Female BALB/c mice [1] (IV, statement on Table 6) is given as “better delivery effect on lymph nodes”. Moreover, in the series on Female BALB/c mice [2], the “Cellular immunity effect (IFN-γ Elispot) compared to ALC0315” value is “better cellular immunity effect”. For the same compound, the “Liver (fluorescence expression intensity)” value with Female BALB/c mice [3] (75 μL IV, 6 hours after injection, IVIS, liver) is listed as 2.11E+07. Moreover, in the series on Female BALB/c mice [3] (75 μL IV, 6 hours after injection, IVIS, spleen), the “Spleen (fluorescence expression intensity)” value was 8.01E+06. In addition, the “Total flux (fluorescence expression intensity)” value with Female BALB/c mice [3] (75 μL tail vein injection (IV), 6 hours after injection, IVIS) was 1.23E+08. Further, in the series with Female BALB/c mice [3] (IV, 6 hours after injection), the “(Spleen/Total Flux) * 100%” value was 6.51%. The “Multiple of spleen delivery/total delivery to amino lipid compound 118” value with Female BALB/c mice [3] (IV, relative to amino lipid compound 118) turned out to be 19.15. This compound also returned an Encapsulation efficiency in series [4] of 92.22%.

In the case of `CCCCCCCCCCCOC(=O)CCCCCN(CCO)CCCCCCCC(=O)OC(CCCCCCCC)CCCCCCCC` [SM-102, reference compound], the “Expression intensity (lymph nodes)” value with Female BALB/c mice [1] turned out to be 4.94E+05.
